Publication PMC12249541, “Novel Derivatives of 3-Amino-4-hydroxy-benzenesulfonamide: Synthesis, Binding to Carbonic Anhydrases, and Activity in Cancer Cell 2D and 3D Cultures” (International Journal of Molecular Sciences, 2025)
“Also recorded” adds a separate entry of the source. Where two headings read alike, the source gives them in different places. One block for each compound: values may come before it.

How the values were obtained:
[1] = target: CAVA (Homo sapiens, UniProt P35218); experiment: Fluorescent thermal shift assay (FTSA), CAVA; type: binding; conditions: compared with compound 10
Chain of CAVA (P35218 39-305): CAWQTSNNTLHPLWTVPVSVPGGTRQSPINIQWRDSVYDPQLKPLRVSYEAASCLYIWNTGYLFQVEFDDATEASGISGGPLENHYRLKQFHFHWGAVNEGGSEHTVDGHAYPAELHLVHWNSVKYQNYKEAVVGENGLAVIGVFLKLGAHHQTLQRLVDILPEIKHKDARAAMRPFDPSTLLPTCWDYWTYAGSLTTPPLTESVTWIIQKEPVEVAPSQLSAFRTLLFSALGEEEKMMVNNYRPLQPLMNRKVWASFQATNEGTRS

[2] = test system: U-87, MDA-MB-231, PPC-1 cell lines; experiment: MTT cell viability assay, statements over several cell lines; type: cell-based, human; conditions: for viability at 100 µM / EC50: Homo sapiens; for EC50: read-out: EC50 values, range over different cell lines
[3] = target: CAIX (Homo sapiens, UniProt Q16790); experiment: Fluorescent thermal shift assay (FTSA), CAIX; type: binding; conditions: compared with compound 10
[4] = target: CAI (Homo sapiens, UniProt P00915); experiment: Fluorescent thermal shift assay (FTSA), CAI; type: binding
Chain of CAI (P00915 whole entry): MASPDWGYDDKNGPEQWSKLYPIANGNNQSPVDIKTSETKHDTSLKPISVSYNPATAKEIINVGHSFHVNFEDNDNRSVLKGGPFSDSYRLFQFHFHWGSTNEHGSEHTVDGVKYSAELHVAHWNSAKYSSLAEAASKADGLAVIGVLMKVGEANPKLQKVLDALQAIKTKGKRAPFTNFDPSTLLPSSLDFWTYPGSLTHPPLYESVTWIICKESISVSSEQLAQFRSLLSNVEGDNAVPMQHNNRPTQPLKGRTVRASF

[5] = target: CAII (Homo sapiens, UniProt P00918); experiment: Fluorescent thermal shift assay (FTSA), CAII; type: binding; conditions: compared with compound 24
[6] = test system: human foreskin fibroblasts (HFs); experiment: MTT cell viability assay, fibroblasts; type: cell-based; conditions: Fibroblast, 72 h, read-out: EC50, HF
[7] = test system: human glioblastoma U-87; experiment: MTT cell viability assay, U-87; type: cell-based; conditions: 72 h, read-out: EC50, U-87
[8] = test system: triple-negative breast cancer MDA-MB-231; experiment: MTT cell viability assay, MDA-MB-231; type: cell-based, human; conditions: read-out: EC50, MDA-MB-231
[9] = test system: prostate adenocarcinoma PPC-1; experiment: MTT cell viability assay, PPC-1; type: cell-based; conditions: Homo sapiens, read-out: EC50, PPC-1
[10] = test system: recombinant human carbonic anhydrases (CAs); experiment: FTSA, statements over several CA isoenzymes; type: binding; conditions: up to 200 µM
[11] = test system: PPC-1 spheroids; experiment: 3D culture (cancer spheroids), PPC-1; type: cell-based, human; conditions: 10 µM
[12] = test system: MDA-MB-231 spheroids; experiment: 3D culture (cancer spheroids), MDA-MB-231; type: cell-based, human; conditions: 10 µM
[13] = test system: U-87 spheroids; experiment: 3D culture (cancer spheroids), U-87; type: cell-based, human; conditions: 10 µM
[14] = 100 μM, 72 h, MTT, at least one of the tested cell lines
[15] = Homo sapiens, MDA-MB-231, MTT, 72 h
[16] = MTT at the end of the experiment
[17] = cancer cells and fibroblasts 1:1, vs control

SMILES: COC(=O)CCNc1cc(S(N)(=O)=O)ccc1O [Compound 25, Methyl 3-((2-hydroxy-5-sulfamoylphenyl)amino)propanoate]
- fold increase in affinity, CAII [5]: ~40 ×

SMILES: NS(=O)(=O)c1ccc(O)c(N=Cc2ccc([N+](=O)[O-])s2)c1 [Compound 9, 4-Hydroxy-3-(((5-nitrothiophen-2-yl)methylene)amino)benzenesulfonamide]
- EC50 [6]: 13.8 ± 5.2 µM
- EC50 ([2]; 72 h): 13 to 23.3 µM
- viability at 100 µM [2, 14]: < 20%
- EC50 [7]: 23.3 ± 2.9 µM
- EC50 ([8]; Homo sapiens, MDA-MB-231, 72 h): 14 ± 3.2 µM
- EC50 ([9]; PPC-1, 72 h): 13 ± 3.5 µM

SMILES: CC(=O)Nc1cc(S(=O)(=O)NC(C)=O)ccc1O [Compound 27, N -((3-Acetamido-4-hydroxyphenyl)sulfonyl)acetamide]
- binding to CA isoenzymes (in words) [10]: did not interact; also recorded: abolished the ability

SMILES: CCOc1ccc(S(=O)(=O)N(CC)CC)cc1-n1cc(-c2ccccc2)n(CC)c1=O [Compound 21, 4-Ethoxy-N,N-diethyl-3-(3-ethyl-2-oxo-4-phenyl-2,3-dihydro-1H-imidazol-1-yl)benzenesulfonamide]
- EC50 ([6]; MTT): 259 ± 8.4 µM
- viability at 100 µM [2, 14]: < 20%
- EC50 ([2]; MTT, 72 h): 43.7 to 148 µM
- selectivity for cancer cells over fibroblasts ([2]; from EC50 values, cancer cell lines vs HF): 1.5–6 times
- EC50 ([7]; MTT): 148 ± 10.4 µM
- binding to CA isoenzymes (in words) [10]: completely lost its ability to bind; also recorded: abolished the ability; also recorded: did not bind any of the tested CAs
- EC50 [8, 15]: 57.3 ± 15 µM
- viability of cells in spheroids, PPC-1 [11, 16]: reduced the viability
- spheroid growth / size, PPC-1 [11, 17]: no statistically significant effect
- EC50 ([9]; PPC-1, MTT, 72 h): 43.7 ± 15 µM
- viability of cells in spheroids, MDA-MB-231 [12, 16]: reduced the viability
- spheroid growth / size, MDA-MB-231 [12, 17]: reduced the growth
- viability of cells in spheroids, U-87 [13, 16]: reduced the viability
- spheroid growth / size, U-87 [13, 17]: reduced the growth

SMILES: CCOc1ccc(S(=O)(=O)N(CC)CC)cc1-n1cc(-c2ccccc2)nc1SCC [Compound 23, 4-Ethoxy-N,N-diethyl-3-(2-(ethylthio)-4-phenyl-1H-imidazol-1-yl)benzenesulfonamide]
- binding to CA isoenzymes (in words) [10]: lost its affinity; also recorded: abolished the ability

SMILES: NS(=O)(=O)c1ccc(NC(=O)Nc2ccc(F)cc2)cc1 [Compound U-104, reference compound]
- EC50 ([8]; MTT, 72 h): 240 ± 18 µM

Now from value to compound, other results behind:

- fold increase in affinity, CAVA [1]: 9 ×
- fold increase in affinity, CAIX [3]: 4.5 ×
- fold increase in affinity, CAI ([4]; compared with compound 10): 60 ×
SMILES: NS(=O)(=O)c1ccc(O)c(NCC(=O)c2cccc3ccccc23)c1 [Compound 14, 4-Hydroxy-3-((2-(naphthalen-1-yl)-2-oxoethyl)amino)benzenesulfonamide]
- cell viability [2, 14]: did not show high cytotoxicity

- EC50 ([7]; MTT): 105 ± 6 µM
- EC50 [8, 15]: 127 ± 20.8 µM
- EC50 ([9]; PPC-1, MTT, 72 h): 108 ± 17.7 µM
SMILES: NS(=O)(=O)c1ccc(O)c(NCC(=NN=C(CNc2cc(S(N)(=O)=O)ccc2O)c2ccccc2)c2ccccc2)c1 [Compound 18, 3,3′-((Hydrazine-1,2-diylidenebis(2-phenylethan-1-yl-2-ylidene))bis(azanediyl))bis(4-hydroxybenzenesulfonamide)]
- EC50 ([6]; MTT): 134 ± 11.1 µM
- viability at 100 µM [2, 14]: < 20%

- EC50 ([7]; MTT): 137 ± 15.4 µM
- melting temperature (Tm) of CAI with increasing compound concentration ([4]; 0–200 µM of compound, FTSA): 56 to 66 °C
- EC50 [8, 15]: 148 ± 22.5 µM
- EC50 ([9]; PPC-1, MTT, 72 h): 137 ± 15.5 µM
SMILES: NS(=O)(=O)c1ccc(O)c(NCC(=O)c2ccc(Cl)cc2)c1 [Compound 12, 4-Hydroxy-3-((2-(4-chlorophenyl)-2-oxoethyl)amino)benzenesulfonamide]
- EC50 ([6]; MTT): 166 ± 7 µM
- viability at 100 µM [2, 14]: < 20%
